Results taken from PubChem BioAssay AID651975 (The Scripps Research Institute Molecular Screening Center, 2013).
Calls of active or inactive are those of the source. How the calls were made is not given here.

Test system: StAR promoter luciferase reporter cells, luminescence inhibition
Test: StAR promoter reporter inhibition counter-screen, late-stage follow-up, counter-screen for LRH-1 inverse agonist project, cell-based, luminescence, dose response (AID 651975)

| Compound | IC50 |
| --- | --- |
| O=C1CCCN2N=C(SCC(=O)Nc3ccc(Br)cc3)SC2=N1 | > 35.9 µM (inactive) |
| CC(C)CC1(C)NC(=O)N(CC(=O)Nc2ccc3c(c2)OCCO3)C1=O (centres undefined) | > 35.9 µM (inactive) |
| CCOc1ccc(NC(=O)COC(=O)CC2CCCCC2)cc1 | > 35.9 µM (inactive) |
| O=C(COC(=O)c1ccc(=O)n(Cc2ccccc2)n1)Nc1ccc2c(c1)OCCO2 | > 35.9 µM (inactive) |
